Laboratory results published in article PMC9694777, “Fractionation and Extraction Optimization of Potentially Valuable Compounds and Their Profiling in Six Varieties of Two Nicotiana Species” (Molecules, 2022).
≈ marks a conversion by molar mass, not a printed value.

Assay: physchem
Source text: Determination of the small molecule content in a complex plant matrix depends on the understanding of minimum solubility in the chosen extraction solvent. […] Often, tests on mixture are hardly reproducible on pure compounds if this aspect is not routinely considered in the workflow. We performed a general testing of best solvent systems to compare a wide range of small molecules of interest to understand the limitations of general approaches within a complex plant matrix such as Nicotiana.
For each of the 29 reference compounds, 2 mg was weighed into a 15 mL glass tube and dissolved in the minimum amount of the test solvent by gradually adding the solvent with a micropipette until complete dissolution or to a final volume of 10.0 mL. Seven solvents with polarities from nonpolar to polar were chosen for the test: hexane (C6H14), CH2Cl2, CH2Cl2/MeOH (4:1, v/v), EtOH, MeOH, MeOH/H2O (7:3, v/v), and H2O. The consumed solvents and their volumes were recorded for each reference compound.

[1] = 22 °C, organic solvent or mixture, thermodynamic from solid, Solubility in C6H14
[2] = 22 °C, organic solvent or mixture, thermodynamic from solid, Solubility in CH2Cl2
[3] = 22 °C, organic solvent or mixture, thermodynamic from solid, Solubility in EtOH
[4] = 22 °C, organic solvent or mixture, thermodynamic from solid, Solubility in MeOH/H2O (7:3)
[5] = 22 °C, organic solvent or mixture, thermodynamic from solid, Solubility in C6H14, solvent hexane (C6H14); room temperature (21–23 °C); 2 mg compound, solvent added until dissolution or 10.0 mL
[6] = 22 °C, organic solvent or mixture, thermodynamic from solid, Solubility in CH2Cl2, solvent dichloromethane (CH2Cl2); room temperature (21–23 °C)
[7] = 22 °C, organic solvent or mixture, thermodynamic from solid, Solubility in CH2Cl2/MeOH (4:1), solvent CH2Cl2/MeOH (4:1, v/v); room temperature (21–23 °C)
[8] = 22 °C, organic solvent or mixture, thermodynamic from solid, Solubility in EtOH, solvent ethanol; room temperature (21–23 °C)
[9] = 22 °C, organic solvent or mixture, thermodynamic from solid, Solubility in MeOH, solvent methanol; room temperature (21–23 °C)
[10] = 22 °C, organic solvent or mixture, thermodynamic from solid, Solubility in MeOH/H2O (7:3), solvent MeOH/H2O (7:3, v/v); room temperature (21–23 °C)
[11] = 22 °C, water, thermodynamic from solid, Solubility in H2O, solvent water; room temperature (21–23 °C)
[12] = solvent MeOH/H2O (7:3, v/v); room temperature (21–23 °C)
[13] = solvent ethanol; room temperature (21–23 °C)
[14] = solvent methanol; room temperature (21–23 °C)
[15] = solvent water; room temperature (21–23 °C)
[16] = CH2Cl2/MeOH (4:1, v/v), 22 °C, organic solvent or mixture, thermodynamic from solid, Solubility in CH2Cl2/MeOH (4:1), solvent CH2Cl2/MeOH (4:1, v/v); room temperature (21–23 °C)
[17] = MeOH/H2O (7:3, v/v), 22 °C, organic solvent or mixture, thermodynamic from solid, Solubility in MeOH/H2O (7:3), solvent MeOH/H2O (7:3, v/v); room temperature (21–23 °C)
[18] = dichloromethane (CH2Cl2), 22 °C, organic solvent or mixture, thermodynamic from solid, Solubility in CH2Cl2, solvent dichloromethane (CH2Cl2); room temperature (21–23 °C)
[19] = ethanol, 22 °C, organic solvent or mixture, thermodynamic from solid, Solubility in EtOH, solvent ethanol; room temperature (21–23 °C)
[20] = methanol, 22 °C, organic solvent or mixture, thermodynamic from solid, Solubility in MeOH, solvent methanol; room temperature (21–23 °C)
[21] = water, 22 °C, thermodynamic from solid, Solubility in H2O, solvent water; room temperature (21–23 °C)
[22] = hexane (C6H14), 22 °C, organic solvent or mixture, thermodynamic from solid, Solubility in C6H14, solvent hexane (C6H14); room temperature (21–23 °C); 2 mg compound, solvent added until dissolution or 10.0 mL
[23] = solvent CH2Cl2/MeOH (4:1, v/v); room temperature (21–23 °C)

Row | Compound | solubility [5] [mg/mL] | solubility [6] [mg/mL] | solubility [8] [mg/mL] | solubility [9] [mg/mL] | solubility [10] [mg/mL] | solubility [11] [mg/mL] | solubility [20] [mg/mL] | solubility [21] [mg/mL] | solubility [22] [mg/mL] | other results
1 | c1cncc([C@@H]2CCCCN2)c1 [Anabasine] |  |  |  |  |  |  |  |  |  | Solubility in CH2Cl2/MeOH (4:1): 70.0 mg/mL (≈ 431 mM); solubility [1]: < 0.19 mg/mL; solubility [2]: 10.3 mg/mL (≈ 63.5 mM); solubility (22 °C, organic solvent or mixture, thermodynamic from solid, Solubility in CH2Cl2/MeOH (4:1)): < 100 mg/mL; solubility [3]: 97 mg/mL (≈ 598 mM); solubility (22 °C, organic solvent or mixture, thermodynamic from solid, Solubility in MeOH): 103 mg/mL (≈ 635 mM); solubility [4]: 109 mg/mL (≈ 672 mM); solubility (22 °C, water, thermodynamic from solid, Solubility in H2O): < 0.19 mg/mL
2 | C1=CCC(c2cccnc2)NC1 (centres unmarked) [Anatabine] | 217 (≈ 1350 mM) | 442 (≈ 2760 mM) | 490 (≈ 3060 mM) | 444 (≈ 2770 mM) | 193 (≈ 1200 mM) | 100 (≈ 624 mM) |  |  |  | solubility [7]: 512 mg/mL (≈ 3200 mM)
3 | C=C1CC/C=C(/C)CC[C@@H]2[C@@H]1CC2(C)C [Caryophyllene] |  |  |  |  |  |  |  |  |  | Solubility in MeOH/H2O (7:3) [12]: NS (not soluble, insoluble in the solvent at the tested concentration range (0.19–558 mg/mL)); Solubility in EtOH [13]: 196 mg/mL (≈ 959 mM); Solubility in MeOH [14]: 36.2 mg/mL (≈ 177 mM); Solubility in H2O [15]: NS (not soluble, insoluble in the solvent at the tested concentration range (0.19–558 mg/mL))
4 | CN1C(=O)CC[C@H]1c1cccnc1 [Cotinine] |  |  |  |  |  |  | 235 (≈ 1330 mM) | 145 (≈ 823 mM) |  | solubility [1]: < 0.19 mg/mL; solubility [16]: 208 mg/mL (≈ 1180 mM); solubility [17]: 139 mg/mL (≈ 789 mM); solubility [18]: 203 mg/mL (≈ 1150 mM); solubility [19]: 190 mg/mL (≈ 1080 mM)
5 | CC(C)=CCC/C(C)=C/CC/C(C)=C/CO [Farnesol] |  |  |  |  |  |  | 466 (≈ 2100 mM) | < 0.19 | 400 (≈ 1800 mM) | solubility [16]: 348 mg/mL (≈ 1560 mM); solubility [17]: 0.75 mg/mL (≈ 3.37 mM); solubility [18]: 382 mg/mL (≈ 1720 mM); solubility [19]: 376 mg/mL (≈ 1690 mM)
6 | C=CC(C)(O)CCC=C(C)C (centres unmarked) [Linalool] |  |  |  |  |  |  | 462 (≈ 3000 mM) | 0.57 (≈ 3.7 mM) | 422 (≈ 2740 mM) | solubility [16]: 462 mg/mL (≈ 3000 mM); solubility [17]: 77.3 mg/mL (≈ 501 mM); solubility [18]: 440 mg/mL (≈ 2850 mM); solubility [19]: 454 mg/mL (≈ 2940 mM)
7 | CCCCC/C=C\C/C=C\CCCCCCCC(=O)O [Linoleic acid] | 374 (≈ 1330 mM) | 504 (≈ 1800 mM) | 558 (≈ 1990 mM) | 526 (≈ 1880 mM) | < 0.19 | < 0.19 |  |  |  | solubility [7]: 502 mg/mL (≈ 1790 mM)
8 | CC1=C[C@H](O)CC(C)(C)[C@H]1/C=C/C(C)=C/C=C/C(C)=C/C=C/C=C(C)/C=C/C=C(C)/C=C/C1=C(C)C[C@@H](O)CC1(C)C [Lutein] | < 0.19 | < 0.19 | < 0.19 | < 0.19 | < 0.19 | < 0.19 |  |  |  | Solubility in CH2Cl2/MeOH (4:1) [23]: 4.66 mg/mL (≈ 8.19 mM); Solubility in CH2Cl2/MeOH (4:1) (solvent CH2Cl2/MeOH (4:1, v/v); room temperature (21–23 °C); listed as lutein): < 100 mg/mL
9 | c1cncc(C2=NCCC2)c1 [Myosmine] | 4.27 (≈ 29.2 mM) | 194 (≈ 1330 mM) | 418 (≈ 2860 mM) | 356 (≈ 2440 mM) | 231 (≈ 1580 mM) | 180 (≈ 1230 mM) |  |  |  | solubility [7]: 175 mg/mL (≈ 1200 mM)
10 | C=CC(=C)CCCC(C)CCCC(C)CCCC(C)C (centres unmarked) [Neophytadiene] |  |  |  |  |  |  |  |  |  | Solubility in MeOH/H2O (7:3) [12]: NS (not soluble, insoluble in the solvent at the tested concentration range (0.19–558 mg/mL)); Solubility in EtOH [13]: 57.5 mg/mL (≈ 206 mM); Solubility in MeOH [14]: 4.08 mg/mL (≈ 14.6 mM); Solubility in H2O [15]: NS (not soluble, insoluble in the solvent at the tested concentration range (0.19–558 mg/mL))
11 | NC(=O)c1cccnc1 [Nicotinamide] |  | < 0.19 | 20.8 (≈ 170 mM) |  | 114 (≈ 933 mM) |  | 66.3 (≈ 543 mM) | 150 (≈ 1230 mM) | < 0.19 | Solubility in CH2Cl2/MeOH (4:1) [23]: 37.3 mg/mL (≈ 305 mM); Solubility in CH2Cl2/MeOH (4:1) (solvent CH2Cl2/MeOH (4:1, v/v); room temperature (21–23 °C); listed as nicotinamide): < 100 mg/mL
12 | O=C(O)c1cccnc1 [Nicotinic acid] |  |  |  |  |  |  | 6.71 (≈ 54.5 mM) | 3.1 (≈ 25.2 mM) | < 0.19 | solubility [2]: < 0.19 mg/mL; solubility [3]: 3.51 mg/mL (≈ 28.5 mM); solubility [4]: 2.85 mg/mL (≈ 23.1 mM)
13 | c1cncc([C@@H]2CCCN2)c1 [Nornicotine] | 358 (≈ 2420 mM) | 422 (≈ 2850 mM) | 396 (≈ 2670 mM) | 428 (≈ 2890 mM) | 418 (≈ 2820 mM) | 416 (≈ 2810 mM) |  |  |  | solubility [7]: 412 mg/mL (≈ 2780 mM)
14 | C[C@@H]1O[C@@H](OC[C@H]2O[C@@H](Oc3c(-c4ccc(O)c(O)c4)oc4cc(O)cc(O)c4c3=O)[C@H](O)[C@@H](O)[C@@H]2O)[C@H](O)[C@H](O)[C@H]1O [Rutin] |  |  |  |  |  |  | 49 (≈ 80.3 mM) | < 0.19 | < 0.19 | solubility [17]: 0.52 mg/mL (≈ 0.852 mM); solubility [18]: < 0.19 mg/mL; solubility [19]: 6.67 mg/mL (≈ 10.9 mM); Solubility in CH2Cl2/MeOH (4:1) [23]: 3.82 mg/mL (≈ 6.26 mM); Solubility in CH2Cl2/MeOH (4:1) (solvent CH2Cl2/MeOH (4:1, v/v); room temperature (21–23 °C); listed as rutin): < 100 mg/mL
15 | C=C[C@](C)(O)CC[C@@H]1[C@@]2(C)CCCC(C)(C)[C@@H]2CC[C@@]1(C)O [Sclareol] |  |  |  |  |  |  | 65.7 (≈ 213 mM) | < 0.19 | 3.76 (≈ 12.2 mM) | solubility [16]: 219 mg/mL (≈ 710 mM); solubility [17]: 3.17 mg/mL (≈ 10.3 mM); solubility [18]: 58 mg/mL (≈ 188 mM); solubility [19]: 75.7 mg/mL (≈ 245 mM)
16 | CC(C)=CCC/C(C)=C/CC/C(C)=C/CC/C(C)=C/CC/C(C)=C/CC/C(C)=C/CC/C(C)=C/CC/C(C)=C/CC/C(C)=C/CO [Solanesol] |  |  |  |  |  |  |  |  |  | Solubility in CH2Cl2/MeOH (4:1) [23]: 203 mg/mL (≈ 322 mM); Solubility in MeOH/H2O (7:3) [12]: NS (not soluble, insoluble in the solvent at the tested concentration range (0.19–558 mg/mL)); Solubility in CH2Cl2 (solvent dichloromethane (CH2Cl2); room temperature (21–23 °C)): 235 mg/mL (≈ 372 mM); Solubility in EtOH [13]: 3.31 mg/mL (≈ 5.24 mM); Solubility in C6H14 (solvent hexane (C6H14); room temperature (21–23 °C); 2 mg compound, solvent added until dissolution or 10.0 mL): 42.0 mg/mL (≈ 66.6 mM); Solubility in MeOH [14]: 0.51 mg/mL (≈ 0.808 mM); Solubility in H2O [15]: NS (not soluble, insoluble in the solvent at the tested concentration range (0.19–558 mg/mL))
17 | CC(C)=CCC/C(C)=C/CC/C(C)=C/CC/C=C(\C)CC/C=C(\C)CCC=C(C)C [Squalene] | 446 (≈ 1090 mM) | 474 (≈ 1150 mM) | 5.94 (≈ 14.5 mM) | 0.22 (≈ 0.536 mM) | < 0.19 | < 0.19 |  |  |  | solubility [7]: 472 mg/mL (≈ 1150 mM)
